Results on one compound are retold here after US20230364084A1, “METHODS FOR PREVENTING OR TREATING CONDITIONS RELATED TO PIKFYVE ACTIVITY” (The Regents of the University of Michigan, priority 2020, published 2023).

The subject of the assay is VCaP cells. Briefly: untargeted lipidomic analysis. Format: cell-based, human. The note with it: 300 nM, 6 and 24 hours. How it is done: Details of sample preparation and identification for untargeted lipidomic profiling have been previously reported^68. The lipids were extracted using a modified Bligh-Dyer method^69. The extraction was carried out using a 2:2:2 volume ratio of water:methanol:dichloromethane at room temperature after spiking internal standard lipids (17:0LPC, 17:0PC, 17:0PE, 17:0PG, 17:0 ceramide, 17:0SM, 17:0PS, 17:0PA, 17:0TG, 17:0MG, d5-DG, d31-TG, and 17.0-20.4 PI). The organic layer was collected and dried completely under nitrogen. The organic dried extract containing lipids was further analyzed by LC-MS-based lipidomics. The dried lipid extracts were injected onto a 1.8-μm particle 50×2.1 mm id Waters Acquity HSS T3 column (Waters, Milford, MA), which was heated to 55° C. […] As controls (QC) to monitor the profiling process, a pool of plasma and test plasma (a small aliquot from all test samples) were extracted and analyzed in tandem with the experimental samples. These controls were incorporated multiple times into the randomization scheme such that sample preparation and analytical variability could be constantly monitored. […] Identified lipids were quantified by normalizing against their respective internal standard. […] The QC samples were mainly used to remove technical outliers and lipid species that were detected below the lipid class-based lower limit of quantification.

SMILES strings stand for the structures.

Regarding `CC(C)Cn1c2ccc(Nc3ncccn3)cc2c2c3c(c4c(c21)CCc1nn(C)cc1-4)C(=O)NC3` [ESK981, 13-isobutyl-4-methyl-10-(pyrimidin-2-ylamino)-1,2,4,7,8,13-hexahydro-6H-indazolo[5,4-a]pyrrolo[3,4-c]carbazol-6-one], the major lipid changed result is listed as “phosphatidylethanolamine (PE) was the major lipid increased”.
